The record followed here is ChEMBL document CHEMBL1156025, “GDC-0449-a potent inhibitor of the hedgehog pathway” (Bioorg Med Chem Lett, 2009).

One data set deals with Cytochrome P450 2C9 (Homo sapiens, UniProt P11712). Kind of data set: Inhibition of CYP2C9. The format is ADME.
Data set [1] in a line: Aqueous solubility at pH 6.5. In kind it is physicochemical.
Data set [2] in a line: (§1) Fraction unbound in human Calu6 cells xenografted in nude mouse plasma at 75 mg/kg, po bid measured after 4 hrs post fifth dose. In kind it is ADME, organism-based, Calu-6. Also noted: dose 75 mg/kg, route oral. The following applies: nude, plasma. Background: Xenograft models place foreign cells or tissue in a host animal.
Data set [3] can be described thus: Clearance in dog liver microsomes. The format is ADME, Canis lupus familiaris, Microsome. (Liver microsomes are vesicles of endoplasmic reticulum, rich in cytochrome P450 enzymes.)
Data set [4] in a line: Aqueous solubility at pH 1. In kind it is physicochemical.
A short description of data set [5]: Clearance in rat liver microsomes. The format is ADME, Microsome.
A short description of data set [6]: Plasma concentration in human Calu6 cells xenografted in nude mouse at 75 mg/kg, po bid measured after 4 hrs post fifth dose. In kind it is ADME, organism-based, Calu-6. Also noted: dose 75 mg/kg, route oral.
For a further data set, the system named is Calu-6. Description: Inhibition of hedgehog pathway in human Calu6 cells xenografted in nude mouse assessed as decrease in Gli transcription at 75 mg/kg, po bid measured after 4 hrs post fifth dose. In kind it is functional, organism-based. Also noted: dose 75 mg/kg.
The subject of another data set is Plasma. The data set is described as §1. In kind it is ADME, organism-based, Calu-6. On the set-up: dose 75 mg/kg, route oral. The following applies: in vivo, 4 h.

pIC50: −log10 of the molar value. ≈ marks a conversion by molar mass, not a printed value. Calls of active or inactive are those of the source. No cut-off for these calls is given here. A value given as a limit tells only on which side of the number the result lay.

Sequence of Cytochrome P450 2C9 (P11712 whole entry): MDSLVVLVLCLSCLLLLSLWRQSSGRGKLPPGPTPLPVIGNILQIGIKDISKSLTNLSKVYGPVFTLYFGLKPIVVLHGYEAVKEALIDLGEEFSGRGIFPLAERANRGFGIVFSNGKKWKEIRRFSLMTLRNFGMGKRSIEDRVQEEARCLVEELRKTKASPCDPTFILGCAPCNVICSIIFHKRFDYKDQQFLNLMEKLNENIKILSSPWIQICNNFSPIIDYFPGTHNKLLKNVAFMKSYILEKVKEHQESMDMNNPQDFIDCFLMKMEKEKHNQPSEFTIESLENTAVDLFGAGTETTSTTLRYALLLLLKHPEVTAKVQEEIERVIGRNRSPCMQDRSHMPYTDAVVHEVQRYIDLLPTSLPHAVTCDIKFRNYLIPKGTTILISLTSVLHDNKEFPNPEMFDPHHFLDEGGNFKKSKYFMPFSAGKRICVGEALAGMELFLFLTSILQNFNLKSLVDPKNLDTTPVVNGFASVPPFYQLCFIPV

In the case of `Cc1nc(C(F)(F)F)ccc1C(=O)Nc1ccc(Cl)c(-c2nc3ccccc3n2C)c1`, on Cytochrome P450 2C9, the pIC50 – broadly, −log10 of the IC50, conventionally taken in molar units – was 5.60.
Turning to `CS(=O)(=O)c1ccc(C(=O)Nc2ccc(Cl)c(-c3ccccn3)c2)cc1`, the solubility (usually the concentration that dissolves in the medium under given conditions) came out at 0.5 µg/mL (≈ 1.29 µM) in [1] and 420 µg/mL (≈ 1090 µM) in data set [4]. Besides, in [2], the free fraction (fraction unbound) (commonly the share of the substance not bound to proteins or other matrix) at 4 h was 0.03. Moreover, the CLint scaled (as a rule, a measure of how fast metabolising enzymes remove a compound, apart from limits set by blood flow) in [3] amounted to 1.4 mL/min/kg; in [5], 1.2 mL/min/kg. In addition, the concentration at 4 h in data set [6] amounted to 14 µM. The outcome in the data set with Calu-6 was inactive.
Consider `CS(=O)(=O)c1ccc(C(=O)Nc2ccc(Cl)c(-c3ccccn3)c2)c(Cl)c1` [VISMODEGIB], for which the values for the solubility in data set [1] and in data set [4] were 9.5 µg/mL (≈ 22.5 µM) and over 3000 µg/mL, respectively. The Fu with Plasma came out at 9%. For the same compound, the intrinsic clearance (CLint scaled) came out at 0.4 mL/min/kg in data set [3] and 3.7 mL/min/kg in [5]. In data set [6], this compound yielded a concentration at 4 h of 23 µM.
Turning to `Cc1nc(C(F)(F)F)ccc1C(=O)Nc1ccc(Cl)c(-c2cnc3ccccc3n2)c1`, the solubility in data set [1] and in data set [4] was 0.1 µg/mL (≈ 0.226 µM) each time. Besides, the intrinsic metabolic clearance (CLint scaled) in data set [3] came out at 7.4 mL/min/kg; in [5] it was 10.7 mL/min/kg.
As to `Cc1nc(C(F)(F)F)ccc1C(=O)Nc1ccc(Cl)c(-c2ccccn2)c1`, the solubility in data set [1] is 1.8 µg/mL (≈ 4.59 µM); in data set [4], 1000 µg/mL (≈ 2550 µM). Besides, the CLint scaled in data set [3] is 1.9 mL/min/kg; in data set [5] it was 4.5 mL/min/kg. The same compound returned a concentration at 4 h in data set [6] of 0.86 µM. Moreover, in the data set on Calu-6, the outcome was inactive.
`Cc1nc(C(F)(F)F)ccc1C(=O)Nc1ccc(Cl)c(-n2cc3ccccc3n2)c1` returned a CLint scaled in data set [5] of 99.3 mL/min/kg.
`Cc1nc(C(F)(F)F)ccc1C(=O)Nc1ccc(Cl)c(-c2nc3ccccc3[nH]2)c1`: the figures for the solubility in data set [1] and in data set [4] were 0.3 µg/mL (≈ 0.696 µM) and 300 µg/mL (≈ 696 µM), respectively. The figures for the CLint scaled in [3] and in data set [5] were 124 mL/min/kg and 3 mL/min/kg, respectively.
